What was measured:
Type in all cases: cell-based
[1] = tested on: corn Hi II immature embryos; experiment: Co-delivery of 2,4-D with mNeonGreen construct pGEP362 by microprojectile bombardment, transient transformation; details: 250 ng 2,4-D, 100 μg gold particles, 16 hours after bombardment, vs no 2,4-D
Description: Embryo isolation and microprojectile bombardment and post-bombardment handlings were performed using the same procedure as described in Example 1.
The amounts of 2,4-D used for a bombardment with 100 μg of gold particles (approximately, 4.0-5.0×10^7 0.6 μm gold particles) are in range of 1.0 ng to 1000 ng, preferred 10 ng to 500 ng. Plasmid DNA and 2,4-D co-coating onto gold particles for bombardment were conducted as described in Example 1. 2,4-D stock solution (e.g. 1 mg/ml) is prepared in 100% DMSO.

[2] = tested on: corn Hi II type II callus; experiment: as above; details: 125 ng, 250 ng, 500 ng 2,4-D vs 0 ng; 16 hours after bombardment
Description: Type II callus culture and microprojectile bombardment and post-bombardment handlings were performed using the same procedure as described in Example 2.
The amounts of 2,4-D used for a bombardment with 100 μg of gold particles (approximately, 4.0-5.0×10^7 0.6 μm gold particles) are in range of 1.0 ng to 1000 ng, preferred 10 ng to 500 ng. Plasmid DNA and 2,4-D co-coating onto gold particles for bombardment were conducted as described in Example 6.

leaves of corn plants = experiment: Co-delivery of 2,4-D with tdTomato construct pGEP359 by microprojectile bombardment, transient transformation; details: 250 ng 2,4-D, 20 hours after bombardment, vs without 2,4-D
Description: Corn plants have grown in greenhouse. In stage V8 microprojectile bombardment was conducted using a Bio-Rad PDS-1000/He particle gun. The bombardment conditions are: 27-28 mm/Hg vacuum, 450 or 650 psi rupture disc, 6 mm gap distance. 20 hours after bombardment, transient transformation was examined using a fluorescence microscope for the tdTomato gene expression at excitation maximum 554 nm and emission maximum 581 nm. Plasmid DNA and 2,4-D co-coating onto gold particles for bombardment were conducted as described in Example 1. 2,4-D stock solution (e.g. 25 mg/ml in DMSO).

[3] = tested on: corn Hi II type II calluses; experiment: Co-delivery of 6-BA or zeatin with tdTomato construct pGEP359 by microprojectile bombardment, transient transformation; details: 250 ng hormone, 100 μg gold particles, 16 hours after bombardment, vs no hormone
Description: The amounts of 6-BA or zeatin used for a bombardment with 100 μg of gold particles (approximately, 4.0-5.0×10^7 0.6 μm gold particles) are in range of 1.0 ng to 10000 ng, preferred 10 ng to 1000 ng.

[4] = tested on: corn Hi II immature embryos; experiment: Co-delivery of TSA with tdTomato construct pLH-Pat5077399-70Subi-tDt by microprojectile bombardment, transient transformation
Description: Procedure: Prepare corn immature embryo for bombardment: 8-10 days post pollination, maize ears (i.e. A188 or Hi II) with immature embryos size 0.8 to 1.8 mm were harvested. The ears were sterilized with 70% ethanol for 10-15 minutes. After a brief air-dry in a laminar hood, remove top ˜⅓ of the kernels from the ears with a shark scalpel, and pull the immature embryos out of the kernels carefully with a spatula. The fresh isolated embryos were placed onto the bombardment target area in an osmotic medium plate (see below) with scutellum-side up. Wrap the plates with parafilm and incubated them at 25° C. in dark for 4-20 hours before bombardment.
The amounts of TSA used for a bombardment with 100 μg of gold particles (approximately, 4.0-5.0×10^7 0.6 micron gold particles) are in range of 0.01 ng to 500 ng, preferred 0.1 to 50 ng. Plasmid DNA and TSA co-coating onto gold particles for bombardment: For 10 shots, 1 mg of gold particle size 0.6 micron (μm) in 50% (v/v) glycerol (100 μg gold particles per shot) in a total volume of 100 microliter (μl) was pipetted into a clear low-retention microcentrifuge tube. Sonicate for 15 seconds to suspend the gold particles. While vortex at a low speed, add the following in order to each 100 μl of gold particles: • Up to 10 μl of DNA (1.0 μg total DNA, 100 ng per shot) • 100 μl of 2.5 M CaCl2) (pre-cold on ice) • 40 μl of 0.1 M cold spermidine
Close the lid and vortex the tube for 2-30 minutes at 0-10° C., and spin down the DNA-coated gold particles. After washing in 500 μl of 100% ethanol for two times, the pellet was resuspended in 120 μl of 100% ethanol. […]
Bombardment was conducted using a Bio-Rad PDS-1000/He particle gun. […] 16-48 hours after bombardment, transient transformation was examined using a fluorescence microscope for the tdTomato gene expression at excitation maximum 554 nm and emission maximum 581 nm. […]

[5] = tested on: corn Hi II type II calluses; experiment: Co-delivery of TSA with tdTomato construct pGEP359 by microprojectile bombardment, transient transformation; details: 15 ng TSA, 100 μg gold particles, 16 hours after bombardment, vs no TSA
Description: Type II callus induction and selection: Hi II immature embryos size 0.8-1.8 mm were isolated as described in Example 1, and were placed onto type II callus induction medium (see below) immediately with scutellum-side up, in a density of 10-15 embryo per plate (diameter of 100 mm). Wrap the plates with parafilm, and culture the embryos in plate at 27° C. in the dark until type II callus emerged (˜2 weeks). Pick friable type II calluses under a stereoscope, and move them onto type II callus selection medium (see below). Repeat this process for 2-3 more times, and trash the embryos 4 weeks after induction. Select pre-embryo stage of type II callus under a stereoscope carefully based on: friability (highly friable), morphology (no embryo-like structure), color (fresh, white, semi-transparent). Select and subculture type II callus every 1-2 week in callus selection medium (see below) until the callus lines stabilized (about 3-5 rounds of selection). Stable type II callus lines were cultured in type II callus subculture medium (see below) every 1 to 2 weeks.
Preparation of type II callus for bombardment: Select and transfer highly friable type II callus at pre-embryo stage onto the bombardment target region in an osmotic medium plate (see Example 1) (single layer, no overlapping). […]

[6] = tested on: sugar beet friable calluses; experiment: Co-delivery of TSA with pLH-Pat5077399-70Subi-tDt by microprojectile bombardment, transient transformation; details: 15 ng TSA, 300 μg gold particles, 24 hours after bombardment, vs no TSA
Description: Sugar beet callus induction: young leaves from in vitro cultured sugar beet shoots in shoot culture medium (see below) were cut into small pieces (square, size 3-5 mm) in a laminar hood, and placed them onto callus induction medium (see below), in a density of 10-15 pieces per plate (diameter of 100 mm) with adaxial-side up. Wrap the plates with parafilm, and culture the leaf segments in plate at 23° C. in the dark for 6-8 weeks until callus emerged.
Preparation of sugar beet callus for bombardment: harvest friable fresh calluses under a stereoscope, and transfer them onto the bombardment target area in a sugar beet osmatic medium (see below) (single layer, no overlapping). Wrap the plates with parafilm and incubated at 25° C. in dark for 4-20 hours before bombardment.
Microprojectile bombardment and post-bombardment handlings were conducted using the same procedure descripted in Example 1, except for the amount of gold particles used for a bombardment was 300 μg.
Sugar beet shoot culture medium: MS, 0.25 mg/L of BAP, 30 g/L of sucrose, 8 g/I plant agar, pH 6.0
Sugar beet callus induction medium: MS, 2.0 mg/L of BAP, 15 g/L of sucrose, 8 g/I plant agar, pH 6.0
Sugar beet callus osmatic medium: MS, 2.0 mg/L of BAP, 15 g/L of sucrose, 0.2 M Mannitol (36.4 g/L), 0.2 M sorbitol (36.4 g/L), 8 g/I plant agar, pH 6.0

[7] = tested on: corn Hi II immature embryos; experiment: Co-delivery of TSA with gene editing construct pGEP284, site-specific InDel rate by NGS
Description: Embryo isolation, microprojectile bombardment and post-bombardment handlings were performed using the same procedure as described in Example 1. Two days after bombardment, the embryos were harvested and used for genomic DNA isolation use Plant DNA Isolation kit from Qiagen (Venlo, Netherlands). NGS (next generation sequencing) was conducted by Miseq platform of Illumina Inc. (San Diego, Calif., USA). InDel (insertion and deletion) rate was analyzed by means of CRISPResso (http://crispresso.rocks/).

[8] = tested on: corn Hi II type II calluses; experiment: Co-delivery of TSA with gene editing constructs pGEP359 and pGEP353, site-specific InDel rate by NGS; details: 15 ng TSA vs no TSA, 13 days after co-bombardment
Description: Type II callus culture and microprojectile bombardment and post-bombardment handlings were performed using the same procedure as described in Example 2. 2-15 days after bombardment, the calluses were harvested and used for genomic DNA isolation with a Plant DNA Isolation kit from Qiagen. NGS (next generation sequencing) was conducted by Illumina Miseq platform. InDel (insertion and deletion) rate was analyzed by means of CRISPResso.

SMILES: O=C(O)COc1ccc(Cl)cc1Cl [2,4-D, 2,4-Dichlorophenoxyacetic acid]
- increase in average number of green fluorescent cells per embryo [1]: 187%
- increase of average number of green fluorescent cells per field [2]: at least 34.8%
- effect on transient transformation in corn leaves (leaves of corn plants): improved the transient transformation

SMILES: c1ccc(CNc2ncnc3nc[nH]c23)cc1 [6-BA, 6-Benzylaminopurine]
- increase in average number of red fluorescent cells per field [3]: 35.8%

SMILES: CC(/C=C/C(=O)NO)=C\[C@@H](C)C(=O)c1ccc(N(C)C)cc1 [TSA, trichostatin A]
- increase of average number of red fluorescent cells (positively transient transformed cells) per embryo ([4]; 15 ng TSA, 100 μg gold particles 0.6 μm, 16 hours after bombardment, vs no TSA): 98.2%
- effect of lower and higher TSA amounts on transient transformed cells ([4]; 15 ng and 45 ng TSA vs no TSA, 16 hours): significant increase of transient transformed cells
- TSA amount giving optimum of average number of fluorescent cells per field ([4]; no TSA, 15, 30, 45 ng TSA tested, 16 hours): around 30 ng
- increase of average number of fluorescent cells per field [5]: 43.3%
- increase of average number of fluorescent cells per field [6]: 193.7%
- effect of lower and higher TSA amounts on InDel rates ([7]; 15 ng and 45 ng TSA compared to absence of TSA, 2 days): significant increase of InDel rates
- TSA amount giving optimum of rates of InDel events ([7]; no TSA, 15, 30, 45 ng TSA tested, 2 days after bombardment, pGEP284): around 30 ng
- increase of site-specific InDel rate, factor [8]: 6.75
- increase of site-specific InDel rate, percent [8]: 575%

SMILES: C/C(=C\CNc1ncnc2[nH]cnc12)CO [zeatin, Zeatin]
- increase in average number of red fluorescent cells per field [3]: 31.2%

— patent publication US20210254087A1, “METHODS FOR ENHANCING GENOME ENGINEERING EFFICIENCY” (KWS SAAT SE & CO. KGaA, priority 2018, published 2021)
